Assay results taken from ChEMBL document CHEMBL1201862, “PubChem BioAssay data set” (2004).
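Cultured in 96-well plates, cells were exposed to test compound for 48 hours across five concentrations. Abbreviation: GI50, concentration required for 50% inhibition of growth.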 The source made the active and inactive calls. Rule as the data show it: active = GI50 up to about 1.1 µM and inactive = higher.

Key:
Assay in all cases: growth of human tumour cells (NCI), 48 h
A549 = test system: A549
ACHN = test system: ACHN
CCRF-CEM = test system: CCRF-CEM
HCT-116 = test system: HCT-116
HCT-15 = test system: HCT-15
HL-60 = test system: HL-60
HOP-62 = test system: HOP-62
IGROV-1 = test system: IGROV-1
MCF7 = test system: MCF7
MDA-MB-231 = test system: MDA-MB-231
MDA-MB-435 = test system: MDA-MB-435
Malme-3M = test system: Malme-3M
NCI-H226 = test system: NCI-H226
OVCAR-3 = test system: OVCAR-3
OVCAR-4 = test system: OVCAR-4
SF-268 = test system: SF-268
SK-MEL-2 = test system: SK-MEL-2
SNB-19 = test system: SNB-19
UACC-62 = test system: UACC-62

SMILES | GI50 (A549) | GI50 (ACHN) | GI50 (CCRF-CEM) | GI50 (HCT-116) | GI50 (HCT-15) [µM] | GI50 (HL-60) | GI50 (HOP-62) | GI50 (IGROV-1) | GI50 (MCF7) | GI50 (MDA-MB-231) | GI50 (MDA-MB-435) | GI50 (Malme-3M) | GI50 (NCI-H226) | GI50 (OVCAR-3) | GI50 (OVCAR-4) | GI50 (SF-268) | GI50 (SK-MEL-2) | GI50 (SNB-19) | GI50 (UACC-62)
Cc1ccc(/N=N/c2c(O)c(C(=O)O)cc3ccccc23)cc1C | > 100 µM (inactive) | > 100 µM (inactive) | > 100 µM (inactive) | > 100 µM (inactive) | > 100 | 46.3 µM (inactive) | 62.5 µM (inactive) | > 100 µM (inactive) | > 100 µM (inactive) | > 100 µM (inactive) | > 100 µM (inactive) | > 100 µM (inactive) | > 100 µM (inactive) | > 100 µM (inactive) | > 100 µM (inactive) | > 100 µM (inactive) | > 100 µM (inactive) | 46.1 µM (inactive) | > 100 µM (inactive)
CC(C)(C)OC(=O)NCC(=O)NC1C/C(=N\O)c2sccc21 (stereo not given) | > 100 µM (inactive) | – | > 100 µM (inactive) | > 100 µM (inactive) | > 100 | > 100 µM (inactive) | > 100 µM (inactive) | > 100 µM (inactive) | > 100 µM (inactive) | > 100 µM (inactive) | > 100 µM (inactive) | > 100 µM (inactive) | > 100 µM (inactive) | > 100 µM (inactive) | > 100 µM (inactive) | > 100 µM (inactive) | > 100 µM (inactive) | > 100 µM (inactive) | > 100 µM (inactive)
Nc1ncc(CN2CCOCC2)c(-c2ccccc2O)n1 | > 100 µM (inactive) | > 100 µM (inactive) | > 100 µM (inactive) | > 100 µM (inactive) | > 100 | > 100 µM (inactive) | > 100 µM (inactive) | > 100 µM (inactive) | > 100 µM (inactive) | > 100 µM (inactive) | > 100 µM (inactive) | > 100 µM (inactive) | > 100 µM (inactive) | > 100 µM (inactive) | > 100 µM (inactive) | > 100 µM (inactive) | > 100 µM (inactive) | – | > 100 µM (inactive)
O=c1c2cccnc2cc(-c2ccccc2)n1CCO | > 100 µM (inactive) | > 100 µM (inactive) | > 100 µM (inactive) | > 100 µM (inactive) | > 100 | > 100 µM (inactive) | > 100 µM (inactive) | > 100 µM (inactive) | > 100 µM (inactive) | > 100 µM (inactive) | > 100 µM (inactive) | > 100 µM (inactive) | > 100 µM (inactive) | > 100 µM (inactive) | > 100 µM (inactive) | 59.2 µM (inactive) | > 100 µM (inactive) | > 100 µM (inactive) | > 100 µM (inactive)
O=C1c2ccccc2C(=O)N1CC(O)COc1cccc2ccccc12 (stereo not given) | > 100 µM (inactive) | 76.4 µM (inactive) | > 100 µM (inactive) | > 100 µM (inactive) | > 100 | > 100 µM (inactive) | > 100 µM (inactive) | > 100 µM (inactive) | > 100 µM (inactive) | > 100 µM (inactive) | > 100 µM (inactive) | 61.8 µM (inactive) | – | > 100 µM (inactive) | – | 85.3 µM (inactive) | – | > 100 µM (inactive) | > 100 µM (inactive)
COC(=O)c1c(C)cccc1/C=C1/Cc2c(C)cccc2C1=O | > 100 µM (inactive) | 86.7 µM (inactive) | – | > 100 µM (inactive) | > 100 | > 100 µM (inactive) | > 100 µM (inactive) | > 100 µM (inactive) | 8.97 µM (inactive) | > 100 µM (inactive) | > 100 µM (inactive) | > 100 µM (inactive) | > 100 µM (inactive) | > 100 µM (inactive) | > 100 µM (inactive) | > 100 µM (inactive) | – | – | > 100 µM (inactive)
S=c1nc2[nH]c3ccc(Br)cc3c2n[nH]1 | 55 µM (inactive) | – | – | 70.5 µM (inactive) | 22.1 | 12 µM (inactive) | – | 19.3 µM (inactive) | 19 µM (inactive) | 49.9 µM (inactive) | 20.7 µM (inactive) | 83.8 µM (inactive) | 94.6 µM (inactive) | 41 µM (inactive) | 25 µM (inactive) | 27.9 µM (inactive) | 25.6 µM (inactive) | > 100 µM (inactive) | 30.5 µM (inactive)
CCOC(=S)SSSC(=S)OCC | 33.7 µM (inactive) | 19.1 µM (inactive) | 30.5 µM (inactive) | 20.8 µM (inactive) | 19.5 | 76.6 µM (inactive) | 30.3 µM (inactive) | – | 28.2 µM (inactive) | 33.1 µM (inactive) | 54.3 µM (inactive) | 16.3 µM (inactive) | 82.6 µM (inactive) | 26.4 µM (inactive) | – | 71.3 µM (inactive) | – | 65 µM (inactive) | 37.9 µM (inactive)
CCCCN1C(=O)CC2[C@@H]3CCc4cc(OC(C)=O)ccc4C3CC[C@]2(C)C1=O (stereo not given in full) | > 10 µM (inactive) | > 10 µM (inactive) | > 10 µM (inactive) | > 10 µM (inactive) | > 10 | 9.42 µM (inactive) | > 10 µM (inactive) | > 10 µM (inactive) | > 10 µM (inactive) | > 10 µM (inactive) | > 10 µM (inactive) | > 10 µM (inactive) | > 10 µM (inactive) | > 10 µM (inactive) | > 10 µM (inactive) | > 10 µM (inactive) | > 10 µM (inactive) | > 10 µM (inactive) | > 10 µM (inactive)
O=C1c2cc3c(cc2CC1Br)CCC3 (stereo not given) | 18.2 µM (inactive) | 3.8 µM (inactive) | 0.405 µM (active) | 1.53 µM (inactive) | 1.96 | 2.9 µM (inactive) | 13.8 µM (inactive) | 2.86 µM (inactive) | 2.07 µM (inactive) | 4.47 µM (inactive) | 1.99 µM (inactive) | 1.01 µM (active) | 3.36 µM (inactive) | 2.03 µM (inactive) | 1.85 µM (inactive) | 4.41 µM (inactive) | 1.98 µM (inactive) | 12.4 µM (inactive) | 3.3 µM (inactive)
Cc1nn(C(=O)Cc2ccccc2)c2c1C(c1ccc(Cl)cc1)SC(=N)N2 (stereo not given) | > 100 µM (inactive) | > 100 µM (inactive) | > 100 µM (inactive) | > 100 µM (inactive) | > 100 | > 100 µM (inactive) | > 100 µM (inactive) | > 100 µM (inactive) | > 100 µM (inactive) | > 100 µM (inactive) | > 100 µM (inactive) | > 100 µM (inactive) | – | – | – | > 100 µM (inactive) | – | – | > 100 µM (inactive)
O=C(CNc1ccccc1C(=O)O)Nn1cnc2ccc(S(=O)(=O)Nc3ccccc3C(=O)O)cc2c1=O | > 100 µM (inactive) | > 100 µM (inactive) | > 100 µM (inactive) | > 100 µM (inactive) | > 100 | > 100 µM (inactive) | > 100 µM (inactive) | > 100 µM (inactive) | > 100 µM (inactive) | > 100 µM (inactive) | > 100 µM (inactive) | > 100 µM (inactive) | > 100 µM (inactive) | > 100 µM (inactive) | > 100 µM (inactive) | > 100 µM (inactive) | > 100 µM (inactive) | > 100 µM (inactive) | > 100 µM (inactive)
COc1ccc(/C(CCl)=C(\Nc2ccccc2)c2ccc(OC)c(OC)c2)cc1OC | 85.7 µM (inactive) | 45.3 µM (inactive) | 97.9 µM (inactive) | 27.6 µM (inactive) | > 100 | 27.2 µM (inactive) | > 100 µM (inactive) | – | > 100 µM (inactive) | 93.1 µM (inactive) | > 100 µM (inactive) | > 100 µM (inactive) | 68.9 µM (inactive) | > 100 µM (inactive) | 75.5 µM (inactive) | > 100 µM (inactive) | > 100 µM (inactive) | > 100 µM (inactive) | > 100 µM (inactive)
CCC(C)C1NC(=O)C2CCCN2C(=O)C(CC2CO2)OC(=O)CCNC(=O)C(C)N(C)C(=O)C(C(C)C)N(C)C1=O (stereo not given) | 0.197 µM (active) | 0.54 µM (active) | – | < 0.0279 µM (active) | 12.8 | < 0.0223 µM (active) | 0.112 µM (active) | 2.14 µM (inactive) | 0.0267 µM (active) | > 22.9 µM (inactive) | 0.111 µM (active) | 0.0142 µM (active) | > 5.08 µM (inactive) | – | 3.11 µM (inactive) | – | < 0.0158 µM (active) | > 13.4 µM (inactive) | 0.0209 µM (active)
CC(=O)OCC1=C(C(=O)O)N2C(=O)C(NC(=O)CSc3ccncc3)C2SC1 (stereo not given) | > 100 µM (inactive) | > 100 µM (inactive) | > 100 µM (inactive) | > 100 µM (inactive) | > 100 | > 100 µM (inactive) | > 100 µM (inactive) | > 100 µM (inactive) | > 100 µM (inactive) | > 100 µM (inactive) | > 100 µM (inactive) | > 100 µM (inactive) | > 100 µM (inactive) | > 100 µM (inactive) | – | > 100 µM (inactive) | > 100 µM (inactive) | > 100 µM (inactive) | > 100 µM (inactive)
CC(C)=CCC/C(=C/CC/C(=C\CCc1ccoc1)C(=O)O)C(=O)O | > 100 µM (inactive) | > 100 µM (inactive) | > 100 µM (inactive) | > 100 µM (inactive) | > 100 | > 100 µM (inactive) | > 100 µM (inactive) | > 100 µM (inactive) | > 100 µM (inactive) | > 100 µM (inactive) | > 100 µM (inactive) | > 100 µM (inactive) | > 100 µM (inactive) | > 100 µM (inactive) | > 100 µM (inactive) | > 100 µM (inactive) | > 100 µM (inactive) | > 100 µM (inactive) | > 100 µM (inactive)
